For data set [1] the following is noted: reference 24 (Liu et al. 2008); cited from earlier work.
The target of another data set is TPH1 (Mus musculus, UniProt P17532). The following applies: WT mice fed a high fat diet; LP533401 100 mg/kg/day by gavage. An excerpt: (§1) Mice were housed under 12:12 light:dark cycle and chow and water were provided ad libitum. All animals were maintained according to NIH guidelines. The Htr2bflox/flox, Tph1flox/flox, and Villin-cre mice have been described previously (1). Alb-cre and aP2-cre mice were obtained from the Jackson Laboratory. For glucose tolerance tests mice were fasted overnight before i.p. injection of 2 g/kg body weight (BW) d-glucose in phosphate buffered saline (PBS) or 1 g/kg BW when mice were fed high fat diet. For pyruvate tolerance tests, mice were fasted overnight, injected i.p. with 2 g/kg BW sodium pyruvate in PBS. Glycerol tolerance test (4 g/kg BW) was performed after 4 h fasting. For insulin tolerance tests, mice were injected with 0.75 U/kg of insulin after 4 h fasting. Glucose was measured by tail vein bleeds at the indicated intervals using an ACCU-CHECK® glucometer. Measurement of free fatty acids (FFA) and glycerol were performed in plasma using a serum triglycerides determination kit (TR0100, Sigma) and a NEFA-HR(2) kit (WAKO Diagnostics). Plasma concentration of serotonin and glucagon were determined by Glucagon ELISA (Alpco, 48-GLUHU-E01) and Serotonin (Research) ELISA, (IBL-America, IB89540). Hyperinsulinemic-euglycemic clamp was performed in the University of Massachusetts Mouse Phenotyping Center, University of Massachusetts Medical School. […]
Sequence of TPH1 (P17532 whole entry): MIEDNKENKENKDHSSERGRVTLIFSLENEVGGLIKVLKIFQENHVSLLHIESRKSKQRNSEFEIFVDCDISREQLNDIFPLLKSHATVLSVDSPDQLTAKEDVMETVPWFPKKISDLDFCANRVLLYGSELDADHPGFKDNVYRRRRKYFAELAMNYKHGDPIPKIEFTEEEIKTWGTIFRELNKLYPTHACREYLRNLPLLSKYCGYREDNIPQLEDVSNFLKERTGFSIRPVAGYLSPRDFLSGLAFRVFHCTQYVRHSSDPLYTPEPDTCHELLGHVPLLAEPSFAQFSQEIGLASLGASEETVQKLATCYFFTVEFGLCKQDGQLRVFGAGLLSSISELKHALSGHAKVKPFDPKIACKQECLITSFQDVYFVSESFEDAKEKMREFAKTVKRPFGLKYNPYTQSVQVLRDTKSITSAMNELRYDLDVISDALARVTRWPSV

In data set [2] the test system is WT mice. Briefly: Glucose tolerance test. It is filed as in vivo.
From the text: as §1

For data set [3], the system named is WT mice. Briefly: Plasma levels of glycerol and FFA in mice. Format: in vivo. An excerpt: (§2) All animals were maintained according to NIH guidelines.
In data set [4] the test system is WT mice. In words: Insulin tolerance test. Format: in vivo.
From the text: as §1

For data set [5], the system named is WT mice. Briefly: Pyruvate tolerance test (gluconeogenesis). Format: in vivo.
From the text: as §1

The subject of a further data set is epididymal fat pads. In words: In vitro lipolysis of isolated fat pads. Format: cell-based, mouse. Here is the method: (§3) In vitro lipolysis assay was performed as described (4). Briefly, epididymal fat pads were isolated and washed several times in Hank's Balanced Salt Solution (HBSS) (Sigma). Tissue pieces (˜25 mg) were incubated in Dulbecco's Modified Eagle's Medium (DMEM) medium (Invitrogen) containing 2% fatty acid free bovine serum albumin (Sigma) at 37° C. for 1 h. After this preincubation, the fat explants were transferred into identical, fresh medium containing serotonin (Sigma) or 10 μM forskolin as a positive control and incubated further for the indicated time-points at 37° C. Afterwards, aliquots of medium were taken for measurements of FFAs and glycerol using available kits (NEFA-HR(2), WAKO Diagnostics; serum triglycerides determination kit, TR0100, Sigma) and tissue was lysed with RIPA buffer for subsequent Western blot analysis or in TRIZOL® (Invitrogen) for gene expression analysis.

A further data set has as its system primary hepatocytes. In words: In vitro glucose production in primary hepatocytes. It is filed as cell-based, mouse. The following applies: for conversion of glycerol to glucose in hepatocytes: primary hepatocytes, indicated doses of serotonin or 100 nM glucagon. As for the experimental part:
Production of glucose was assessed in primary, freshly isolated, attached hepatocytes. Briefly, cells were platted on 12 well plate format (200,000 cells per well). After isolation, the cells were allowed to attach and recover for 6 h in Williams E medium containing 10% fetal calf serum. Then they were washed and starved for 1 h in Dulbecco's Modified Eagle's DMEM without glucose and phenol red but with 2 mM L-glutamate and 0.5% BSA (D5030, Sigma). Then the cells were switched to the same medium or the same medium containing 10 mM glycerol and stimulated with the indicated substances for 6 h. Glucose concentration was determined in the medium using Amplex Red Glucose/Glucose Oxidase Assay Kit, (Invitrogen, A22189). Glucose production from glycerol was determined by subtracting glucose produced by the cells incubated without glycerol from this incubated with glycerol.

Data set [6] deals with WT mice. In words: Glycerol tolerance test in WT mice implanted with serotonin-releasing pellets. As to conditions: WT mice implanted with serotonin pellets vs placebo controls. Format: in vivo.
From the text: as §2

The test system of data set [7] is hormone sensitive lipase (HSL). In words: Western blot of lipolytic enzymes in fat explants stimulated with serotonin. It is filed as cell-based, mouse. The following applies: 50 μM serotonin, Htr2b-dependent. Here is the method:
as §3
Western blotting was performed according to standard procedures. Frozen tissues or cells were homogenized and lysed with RIPA buffer. Membranes were blocked and then incubated overnight with primary antibody in TBST-5% BSA, followed by incubation with appropriate HRP-conjugated secondary antibody. Signals were visualized with ECL. […]

Data set [8] in a line: Plasma serotonin concentration in mice implanted with serotonin-releasing pellets. It is filed as in vivo. The following applies: WT mice, subcutaneous serotonin releasing pellets.
From the text: as §2
This was done by implanting subcutaneously serotonin releasing pellets in WT mice. These pellets increased circulating levels of serotonin approximately two-fold (FIG. 5C).

The mark [9] stands for this setting: WT mice fed a normal diet, compared with Tph1gutΔ/Δ mice.
Setting [10] is: mice fed a high fat diet, LP533401 100 mg/kg/day.
[11] abbreviates: WT mice fed a high fat diet, fasted for 4 h, LP533401 100 mg/kg/day.
Where [12] appears, read: Htr2b-deficient fat pad explants, 50 μM serotonin or 1 μM isoproterenol.
Setting [13] is: epididymal fat pads treated with increasing amounts of serotonin.
Setting [14] is: fed WT mice, subcutaneous serotonin releasing pellets.

This is an account of results in patent publication US9150521B2, “Methods of preventing and treating diabetes by inhibiting serotonin synthesis” (The Trustees of Columbia University in the City of New York, priority 2012, dated 2015).

On to `Nc1nc(OC(c2ccc(-c3cccc(F)c3)cc2)C(F)(F)F)cc(-c2ccc(C[C@H](N)C(=O)O)cc2)n1` (stereo partly drawn) [LP533401], for which the “crossing of the blood-brain barrier” value in data set [1] is recorded as “does not cross efficiently the blood-brain barrier”. Further, the “reduction of circulating serotonin levels” value at TPH1 is on record as 80%. Also, the glucose tolerance result with WT mice [2] (setting [9]) is recorded as “improved”. For the same molecule, the glucose tolerance result with WT mice [2] (setting [10]) was “significantly improved”. In addition, in the data set with WT mice [3] (setting [11]), the FFAs circulating levels result was “normalization” and the glycerol circulating levels entry is given as “decrease”. In the data set with WT mice [3] (WT mice fed a normal diet), the FFA levels result is given as “decreased” and the glycerol levels entry is “decreased”. In the data set on WT mice [4] (setting [9]), the insulin tolerance result is given as “improved”. Besides, the insulin sensitivity result in the data set on WT mice [4] (setting [10]) is listed as “normalized”. Further, the gluconeogenesis rate entry with WT mice [5] (WT mice fed a normal diet) is recorded as “decreased”. The gluconeogenesis entry in the data set with WT mice [5] (setting [10]) is “significantly improved”.

`CC(C)NCC(O)c1ccc(O)c(O)c1` (stereo not drawn) [isoproterenol]: in the data set on epididymal fat pads (setting [12]), the “release of FFAs” value was “favored equally well” and the release of glycerol result is reported as “favored equally well”.

Consider `NCCc1c[nH]c2ccc(O)cc12` [serotonin, 5-hydroxytryptamine], for which, in the data set on primary hepatocytes (Htr2bΔ/Δ hepatocytes, 50 μM serotonin), the “glucose production from glycerol” value is given as “could not induce”. The “conversion of glycerol to glucose in hepatocytes” value with primary hepatocytes was “stimulated”. Also, in the data set on epididymal fat pads (setting [12]), the “release of FFAs” value is on record as “failed to enhance” and the release of glycerol result is on record as “failed to enhance”. Moreover, in the data set on epididymal fat pads (setting [13]), the “release of FFAs” value is reported as “significantly increased” and the release of glycerol result is “significantly increased”. The “blood glucose levels after glycerol” value in the data set on WT mice [6] is recorded as “to a higher level than in controls”. The “phosphorylation of hormone sensitive lipase (HSL) on serine residues 563 and 660” value in [7] is recorded as “favored”. Besides, in the data set on WT mice [3] (WT mice implanted with serotonin pellets, fasted for 4 h), the lipolysis result is given as “further enhanced”. Further, in the data set with WT mice [3] (setting [14]), the “circulating levels of FFAs” value is on record as “significant increase” and the “circulating levels of glycerol” value was “significant increase”. Moreover, in data set [8], the “increase of circulating levels of serotonin” value is on record as “approximately two-fold”.

With glucagon, the “conversion of glycerol to glucose in hepatocytes” value in the data set with primary hepatocytes was “stimulated”.
